# Data published in patent publication US8357385B2, “Combination therapy for the treatment of bacterial infections” (Interface Biologics Inc., priority 2008, dated 2013).
# Like-named read-outs stand apart in the source and are kept apart here. Peptide text beside a SMILES is read from it.
# Tests used:
# Assay type in all cases: cell-based
# P. Auregenosa = experiment: organism not typed
# Method: (§1) Broth dilution method was used to measure quantitatively the in vitro activity of an antimicrobial agent against a given bacterial isolate. First, a series of tubes/wells were prepared with a broth medium to which various concentrations of the antimicrobial agents were added. The tubes/wells were then inoculated with standardized suspension of the test organism. After overnight incubation at 35±2° C., the tests were examined and the minimum inhibitory concentration (MIC) was determined. The procedures were performed under aseptic conditions. Stock culture: Stock cultures were maintained in Mueller Hinton Broth containing 15% Glycerol and stored at −80° C. Stock cultures were sub-cultured on to Mueller Hinton Agar (MHA), and incubated overnight at 37° C. […] Washing of cells: the cells were washed with PBS (pH 7.1) by centrifuging at 3000 rpm for 10 minutes. A cell suspension in Mueller Hinton broth (MHB) having a turbidity equivalent to a 0.5 McFarland turbidity standard was prepared using a Beckman Coulter DU 800 Spectrophotometer measuring at 600 nm wavelength. This is a suspension containing approximately […] of microbe. The suspension was diluted in MH broth so that, after dilution, the tube contained approximately 5×10^6 CFU/mL, and after inoculation, each well contains approximately 5×10^5 CFU/mL. Broth dilution procedure: small volumes of MH broth dispensed in sterile, polystyrene, non-pyrogenic tissue culture plates, 96 well, flat bottoms with low evaporation lid were prepared (each well contained 0.1 mL of MH broth) followed by the final two fold dilutions of antimicrobial agent dispensed volumetrically into the broth. […] Inoculation: each well of a microdilution plate was inoculated. The purity of the inoculum suspension was checked by sub-culturing an aliquot on to MH agar plate. Colony counts on inoculum suspensions were performed periodically, to ensure that the final inoculum concentration was approximately […]. […] To prevent drying, each plate was sealed with parafilm and the plates were kept in a moist chamber while incubating at 37° C. overnight, in a shaking incubator. Determining MIC endpoints: The MIC is defined as the lowest concentration of an antimicrobial that will inhibit growth of a microorganism. The in plate dilution method the endpoint is detected by the unaided eye.
# E. coli = experiment: microbe, parasite or virus in culture
# Method: as §1
# S. Aureus = experiment: microbe, parasite or virus in culture
# Method: as §1
# C. Albicans = experiment: Broth dilution MIC against C. Albicans; settings: Candida albicans, Monotherapy, overnight incubation
# Method: Broth dilution method was used to measure quantitatively the in vitro activity of an antimicrobial agent against a given bacterial isolate. First, a series of tubes/wells were prepared with a broth medium to which various concentrations of the antimicrobial agents were added. The tubes/wells were then inoculated with standardized suspension of the test organism. After overnight incubation at 35±2° C., the tests were examined and the minimum inhibitory concentration (MIC) was determined. The procedures were performed under aseptic conditions. Stock culture: Stock cultures were maintained in Mueller Hinton Broth containing 15% Glycerol and stored at −80° C. Stock cultures were sub-cultured on to Mueller Hinton Agar (MHA), and incubated overnight at 37° C. […] Washing of cells: the cells were washed with PBS (pH 7.1) by centrifuging at 3000 rpm for 10 minutes. A cell suspension in Mueller Hinton broth (MHB) having a turbidity equivalent to a 0.5 McFarland turbidity standard was prepared using a Beckman Coulter DU 800 Spectrophotometer measuring at 600 nm wavelength. This is a suspension containing approximately […] of microbe. The suspension was diluted in MH broth so that, after dilution, the tube contained approximately 5×10^6 CFU/mL, and after inoculation, each well contains approximately 5×10^5 CFU/mL. Broth dilution procedure: small volumes of MH broth dispensed in sterile, polystyrene, non-pyrogenic tissue culture plates, 96 well, flat bottoms with low evaporation lid were prepared (each well contained 0.1 mL of MH broth) followed by the final two fold dilutions of antimicrobial agent dispensed volumetrically into the broth. […] Inoculation: each well of a microdilution plate was inoculated. The purity of the inoculum suspension was checked by sub-culturing an aliquot on to MH agar plate. Colony counts on inoculum suspensions were performed periodically, to ensure that the final inoculum concentration was approximately 5×10^6 CFU/mL. […] The in plate dilution method the endpoint is detected by the unaided eye.
# [1] = Monotherapy, P. Auregenosa, broth dilution, overnight incubation, read-out: MIC
# [2] = Escherichia coli, Monotherapy, E. coli, broth dilution, overnight incubation, read-out: MIC
# [3] = Staphylococcus aureus, Monotherapy, S. Aureus, broth dilution, overnight incubation, read-out: MIC
# [4] = Monotherapy, P. Auregenosa, broth dilution, overnight incubation
# [5] = Monotherapy, E. coli, broth dilution, overnight incubation
Molecule,MIC (P. Auregenosa; [1]) [µg/mL],MIC (E. coli; [2]) [µg/mL],MIC (S. Aureus; [3]) [µg/mL],MIC (C. Albicans) [µg/mL],also measured
C[C@H]1[C@H](NC(=O)/C(=N\OC(C)(C)C(=O)O)c2csc(N)n2)C(=O)N1S(=O)(=O)O [Aztreonam],15.6 to 19,0.078 to 0.097,625 to 1250,–,–
"CC[C@H](C)[C@H](N)C1=N[C@H](C(=O)N[C@@H](CC(C)C)C(=O)N[C@H](CCC(=O)O)C(=O)N[C@H](C(=O)N[C@H]2CCCCNC(=O)[C@H](CC(N)=O)NC(=O)[C@@H](CC(=O)O)NC(=O)[C@H](Cc3cnc[nH]3)NC(=O)[C@@H](Cc3ccccc3)NC(=O)[C@H]([C@@H](C)CC)NC(=O)[C@@H](CCCN)NC2=O)[C@@H](C)CC)CS1 [Bacitracin] (HELM PEPTIDE1{[CC[C@H](C)[C@H](N)C1=N[C@H](C(=O)[*:2])CS1].L.[dE].I.K.[NCCC[C@@H](N[*:1])C(=O)[*:2]].I.[dF].H.[dD].N}$PEPTIDE1,PEPTIDE1,5:R3-11:R2$$$V2.0)",–,–,–,–,MIC (P. Auregenosa): 4000 to 5000 µg/mL; MIC (E. coli): 1000 to 1250 µg/mL; MIC (S. Aureus): 35 to 40 µg/mL
CN[C@H](CC(C)C)C(=O)N[C@H]1C(=O)N[C@@H](CC(N)=O)C(=O)N[C@H]2C(=O)N[C@H]3C(=O)N[C@H](C(=O)N[C@H](C(=O)O)c4cc(O)cc(O)c4-c4cc3ccc4O)[C@H](O)c3ccc(c(Cl)c3)Oc3cc2cc(c3O[C@@H]2O[C@H](CO)[C@@H](O)[C@H](O)[C@H]2O[C@H]2C[C@](C)(N)[C@H](O)[C@H](C)O2)Oc2ccc(cc2Cl)[C@H]1O [Vancomycin],–,–,–,–,MIC (E. coli; Escherichia coli): 190 to 380 µg/mL
O=C(O)c1cn(C2CC2)c2cc(N3CCNCC3)c(F)cc2c1=O [Ciprofloxacin],0.156 to 0.25,0.005 to 0.0078,0.156 to 0.2,> 2.5,–
Clc1ccc(COC(Cn2ccnc2)c2ccc(Cl)cc2Cl)c(Cl)c1 (stereo not drawn) [Miconazole],–,–,45 to 90,1.4 to 2.8,–
[H]/N=C(\N/C(=N/[H])NCCCCCCNC(=N)NC(=N)Nc1ccc(Cl)cc1)Nc1ccc(Cl)cc1 [Chlorhexidine],4 to 5,3.13 to 4,3.12 to 4,3.12 to 4,–
Gentamicin,–,–,–,–,MIC (P. Auregenosa; [4]): 0.625 to 1.25 µg/mL; MIC (E. coli; [5]): 1.25 to 2.5 µg/mL
CC1(C)S[C@@H]2[C@H](NC(=O)[C@H](N)c3ccc(O)cc3)C(=O)N2[C@H]1C(=O)O [Amoxicillin],250 to 500,–,31.2 to 62.5,–,–
Polymixin B,–,–,–,–,"MIC (P. Auregenosa; [4]): 3.125 to 5.0 µg/mL; MIC (E. coli; [5]): 7.8 to 10 µg/mL; MIC (S. Aureus; Monotherapy, S. Aureus, broth dilution, overnight incubation): 62.5 to 100.0 µg/mL"
